Measurements from patent US20240150334A1, “HSD17B13 INHIBITORS AND/OR DEGRADERS” (Pfizer Inc., priority 2022, published 2024).

Columns and labels:
[1] = molecular target: wild type human HSD17B13 (Homo sapiens (Human), UniProt Q7Z5P4); experiment: HEK_Beta-Est LCMS_IC50_Tekcel, whole-cell HEK-HSD17B13 inhibition assay, estrone production by LCMS; format: cell-based; conditions: geometric mean, HEK cells stably expressing wild type human HSD17B13, 25 μM FAC beta-estradiol, read-out: HEK_Beta-Est LCMS_IC50—Tekcel GMean IC50
wild type human HSD17B13, sequence (Q7Z5P4 20-300): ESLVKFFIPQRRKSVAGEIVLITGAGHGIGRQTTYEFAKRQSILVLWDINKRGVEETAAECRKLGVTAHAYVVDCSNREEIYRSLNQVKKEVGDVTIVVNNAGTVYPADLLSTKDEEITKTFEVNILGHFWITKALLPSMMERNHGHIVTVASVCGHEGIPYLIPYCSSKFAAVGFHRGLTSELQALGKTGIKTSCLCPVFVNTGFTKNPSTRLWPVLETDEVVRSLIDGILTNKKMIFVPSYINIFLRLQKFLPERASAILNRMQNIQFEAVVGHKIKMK
In short: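 HEK cells expressing wild-type human HSD17B13 were preincubated with compound for 1 hour at 37° C, then the beta-estradiol/NAD+ reaction ran for 2 hours at 37° C. Estrone formed was quantified by LCMS as product area ratio and normalized to uninhibited vehicle-control wells.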

[2] = molecular target: HSD17B13 enzyme (Homo sapiens (Human), UniProt Q7Z5P4); experiment: hHSD17B13 IC50 Assay (FAC beta-estradiol), purified protein enzyme activity assay with NAD(P)H-Glo luciferase readout; format: biochemical; conditions: geometric mean, 12 μM FAC beta-estradiol, 500 μM NAD+, read-out: hHSD17B13_IC50 GMean IC50
HSD17B13 enzyme, sequence (Q7Z5P4 20-300): as above
In short: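 Purified human HSD17B13 (30 nM FAC) incubated with compound, beta-estradiol and NAD+ for 2 h at room temperature in the dark. NADH formation was detected by NAD(P)H-Glo luminescence after 1 h. RLUs normalized to uninhibited enzyme (vehicle) as zero effect.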

Compound	IC50 [1]	IC50 [2]
O=C(NC[C@]12CC[C@](c3nc(-c4cnc(C(F)(F)F)cn4)no3)(CC1)CC2)c1cc(F)c(O)c(F)c1F [Example 178, 2,3,5-trifluoro-4-hydroxy-N-[(4-{3-[5-(trifluoromethyl)pyrazin-2-yl]-1,2,4-oxadiazol-5-yl}bicyclo[2.2.2]octan-1-yl)methyl]benzamide]	0.15 µM	0.0079 µM
O=C(NC[C@]12CC[C@](c3nc(-c4cnc(C(F)(F)F)cn4)no3)(CC1)CC2)c1cc(F)c(O)cc1F [Example 179, 2,5-difluoro-4-hydroxy-N-[(4-{3-[5-(trifluoromethyl)pyrazin-2-yl]-1,2,4-oxadiazol-5-yl}bicyclo[2.2.2]octan-1-yl)methyl]benzamide]	0.15 µM	0.016 µM
O=C(NC[C@]12CC[C@](c3nc(-c4ccc(C(F)(F)F)nn4)no3)(CC1)CC2)c1ccc(O)c(F)c1F [Example 180, 2,3-difluoro-4-hydroxy-N-[(4-{3-[6-(trifluoromethyl)pyridazin-3-yl]-1,2,4-oxadiazol-5-yl}bicyclo[2.2.2]octan-1-yl)methyl]benzamide]	0.47 µM	0.011 µM
O=C(NC[C@H]1CC[C@H](n2cc3cc(C(F)(F)F)ccc3n2)CC1)c1cc(F)c(O)c(F)c1 [Example 181, 3,5-difluoro-4-hydroxy-N-({(1r,4r)-4-[5-(trifluoromethyl)-2H-indazol-2-yl]cyclohexyl}methyl) benzamide]	0.23 µM	0.016 µM
O=C(NC[C@H]1CC[C@H](n2cc3cc(C(F)(F)F)ccc3n2)CC1)c1cc(F)c(O)c(F)c1F [Example 182, 2,3,5-trifluoro-4-hydroxy-N-({(1r,4r)-4-[5-(trifluoromethyl)-2H-indazol-2-yl]cyclohexyl}methyl) benzamide]	0.23 µM	0.016 µM
O=C(NC[C@H]1CC[C@H](n2cc3cc(C(F)(F)F)ccc3n2)CC1)c1cc(F)c(O)cc1F [Example 183, 2,5-difluoro-4-hydroxy-N-({(1r,4r)-4-[5-(trifluoromethyl)-2H-indazol-2-yl]cyclohexyl}methyl)benzamide]	0.45 µM	0.01 µM
O=C(NC[C@]12CC[C@](c3nc(-c4ccc(C(F)(F)F)nn4)no3)(CC1)CC2)c1cc(F)c(O)c(F)c1F [Example 184, 2,3,5-trifluoro-4-hydroxy-N-[(4-{3-[6-(trifluoromethyl)pyridazin-3-yl]-1,2,4-oxadiazol-5-yl}bicyclo[2.2.2]octan-1-yl)methyl]benzamide]	0.22 µM	0.0055 µM
O=C(NC[C@]12CC[C@](c3nc(-c4ccc(C(F)(F)F)nn4)no3)(CC1)CC2)c1cc(F)c(O)cc1F [Example 185, 2,5-difluoro-4-hydroxy-N-[(4-{3-[6-(trifluoromethyl)pyridazin-3-yl]-1,2,4-oxadiazol-5-yl}bicyclo[2.2.2]octan-1-yl)methyl]benzamide]	0.14 µM	0.0037 µM
O=C(NC[C@H]1CC[C@H](N2Cc3cc(Cl)ccc3C2=O)CC1)c1cc(F)c(O)cc1F [Example 186, N-{[(1r,4r)-4-(5-chloro-1-oxo-1,3-dihydro-2H-isoindol-2-yl)cyclohexyl]methyl}-2,5-difluoro-4-hydroxybenzamide]	0.48 µM	0.015 µM
O=C(NC[C@H]1CC[C@H](n2cc3cc(Cl)ncc3n2)CC1)c1cc(F)c(O)c(F)c1 [Example 187, N-{[(1r,4r)-4-(5-chloro-2H-pyrazolo[3,4-c]pyridin-2-yl)cyclohexyl]methyl}-3,5-difluoro-4-hydroxybenzamide]	0.4 µM	0.01 µM
O=C(NC[C@H]1CC[C@H](n2cc3cnc(-c4ccncc4)cc3n2)CC1)c1cc(F)c(O)c(F)c1 [Example 188, 3,5-difluoro-4-hydroxy-N-({(1r,4r)-4-[6-(pyridin-4-yl)-2H-pyrazolo[4,3-c]pyridin-2-yl]cyclohexyl}methyl) benzamide]	0.24 µM	0.011 µM
O=C(NC[C@]12CC[C@](c3noc(-c4cccc(OS(=O)(=O)F)c4)n3)(CC1)CC2)c1cc(F)c(O)c(F)c1 [Example 190, 3-(3-{4-[(3,5-difluoro-4-hydroxybenzamido)methyl]bicyclo[2.2.2]octan-1-yl}-1,2,4-oxadiazol-5-yl) phenyl sulfurofluoridate]	0.42 µM	0.0086 µM
O=C(NC[C@]12CC[C@](c3nc(-c4cnc(C(F)(F)F)cn4)no3)(CC1)CC2)c1cc(F)c(O)c(F)c1 [Example 191, 3,5-difluoro-4-hydroxy-N-[(4-{3-[5-(trifluoromethyl)pyrazin-2-yl]-1,2,4-oxadiazol-5-yl}bicyclo[2.2.2]octan-1-yl)methyl]benzamide]	0.12 µM	0.0097 µM
O=C(NC[C@]12CC[C@](n3cc4cc(C(F)(F)F)ccc4n3)(CC1)CC2)c1cc(F)c(O)c(F)c1F [Example 193, 2,3,5-trifluoro-4-hydroxy-N-({4-[5-(trifluoromethyl)-2H-indazol-2-yl]bicyclo [2.2.2]octan-1-yl}methyl)benzamide]	0.44 µM	0.022 µM
O=C(NC[C@]12CC[C@](c3nc(-c4ccc(C(F)(F)F)nc4)no3)(CC1)CC2)c1cc(F)c(O)cc1F [Example 195, 2,5-difluoro-4-hydroxy-N-[(4-{3-[6-(trifluoromethyl)pyridin-3-yl]-1,2,4-oxadiazol-5-yl}bicyclo [2.2.2]octan-1-yl)methyl]benzamide]	0.39 µM	0.016 µM
O=C(NC[C@]12CC[C@](c3nc(-c4ccc(C(F)(F)F)nc4)no3)(CC1)CC2)c1cc(F)c(O)c(F)c1F [Example 196, 2,3,5-trifluoro-4-hydroxy-N-[(4-{3-[6-(trifluoromethyl)pyridin-3-yl]-1,2,4-oxadiazol-5-yl}bicyclo[2.2.2]octan-1-yl)methyl]benzamide]	0.34 µM	0.012 µM
O=C(NC[C@H]1CC[C@H](c2nc(-c3ccc(C(F)(F)F)nc3)no2)CC1)c1cc(F)c(O)cc1F [Example 197, 2,5-difluoro-4-hydroxy-N-{[(1r,4r)-4-{3-[6-(trifluoromethyl)pyridin-3-yl]-1,2,4-oxadiazol-5-yl}cyclohexyl]methyl} benzamide]	0.47 µM	0.039 µM
O=C(NC[C@H]1CC[C@H](c2nc(-c3ncc(C(F)(F)F)cn3)no2)CC1)c1cc(F)c(O)cc1F [Example 198, 2,5-difluoro-4-hydroxy-N-{[(1r,4r)-4-{3-[5-(trifluoromethyl)pyrimidin-2-yl]-1,2,4-oxadiazol-5-yl}cyclohexyl]methyl} benzamide]	0.31 µM	0.0065 µM
O=C(NC[C@H]1CC[C@H](n2cc3cc(-c4cccnc4)ncc3n2)CC1)c1cc(F)c(O)c(F)c1 [Example 199, 3,5-difluoro-4-hydroxy-N-({(1r,4r)-4-[5-(pyridin-3-yl)-2H-pyrazolo[3,4-c]pyridin-2-yl]cyclohexyl}methyl) benzamide]	0.37 µM	0.0088 µM
Cn1cc(-c2cc3cn([C@H]4CC[C@H](CNC(=O)c5cc(F)c(O)c(F)c5)CC4)nc3cn2)cn1 [Example 200, 3,5-difluoro-4-hydroxy-N-({(1r,4r)-4-[5-(1-methyl-1H-pyrazol-4-yl)-2H-pyrazolo[3,4-c]pyridin-2-yl]cyclohexyl}methyl) benzamide]	0.35 µM	0.01 µM
O=C(NC[C@]12CC[C@](n3cc4ccccc4n3)(CC1)CC2)c1cc(F)c(O)c(F)c1 [Example 202, 3,5-difluoro-4-hydroxy-N-{[4-(2H-indazol-2-yl)bicyclo [2.2.2]octan-1-yl]methyl}benzamide]	0.22 µM	0.049 µM
O=C(NC[C@H]1CC[C@H](c2nc(-c3ccc(C(F)(F)F)cn3)no2)CC1)c1cc(F)c(O)c(F)c1F [Example 210, 2,3,5-trifluoro-4-hydroxy-N-{[(1r,4r)-4-{3-[5-(trifluoromethyl)pyridin-2-yl]-1,2,4-oxadiazol-5-yl}cyclohexyl]methyl}benzamide]	0.45 µM	0.018 µM
Cc1ccc(-c2noc([C@H]3CC[C@H](CNC(=O)c4cc(F)c(O)c(F)c4)CC3)n2)nn1 [Example 211, 3,5-difluoro-4-hydroxy-N-({(1r,4r)-4-[3-(6-methyl-pyridazin-3-yl)-1,2,4-oxadiazol-5-yl]cyclohexyl}methyl) benzamide]	2.7 µM	0.015 µM
Cc1ccc(-c2noc([C@H]3CC[C@H](CNC(=O)c4cc(F)c(O)c(F)c4F)CC3)n2)nn1 [Example 212, 2,3,5-trifluoro-4-hydroxy-N-({(1r,4r)-4-[3-(6-methylpyridazin-3-yl)-1,2,4-oxadiazol-5-yl]cyclohexyl}methyl) benzamide]	2.3 µM	0.026 µM
